Results on 15 compounds are retold here after patent US12492193B2, “Pyrazole derivatives for the treatment of cystic fibrosis” (Fondazione Istituto Italiano Di Tecnologia, priority 2017, dated 2025).

What all share (format): cell-based
The target in one assay is T1, mutant CFTR (Homo sapiens, UniProt P13569, DEL508-508).
T1 construct: expressed in transfected cells
The experiment in a line: Fluorescence (HS-YFP) assay for CFTR activity, corrector assay. The settings on record: CFBE41o- and FRT cells with stable expression of mutant CFTR, 24 h compound treatment. The gist of the method: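 Corrector activity: 24 h compound treatment of HS-YFP/mutant-CFTR CFBE41o- or FRT cells, followed by 30 min forskolin 20 μM + genistein 50 μM at 37° C. Iodide influx (100 mM final) was tracked as fluorescence quenching, with dF/dt extrapolated by exponential fitting; EC50 values derived.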

The target in assay [1] is T2, F508del-CFTR (Homo sapiens, UniProt P13569, DEL508-508). The experiment in a line: Transepithelial electrical conductance (TEEC) in FRT cells expressing F508del-CFTR. Further details: expressed in transfected cells; host or cells: FRT cells. The settings on record: compounds tested at 5.0 μM, 24 hrs, table 2. The method, then: Transepithelial Electrical Conductance (TEEC)
FRT cells expressing F508del-CFTR were plated on HTS Transwell-24 well permeable supports (Code 3379, Corning Life Sciences) at a density of 200,000 cells/well. After six days, cells were incubated for 24 hrs with test correctors, vehicle, or VX-809. Compounds were dissolved in both basolateral (800 μL) and apical (300 μL) culture medium. After treatment, the culture medium was removed and replaced on both sides with a saline solution containing (in mM): 130 NaCl, 2.7 KCl, 1.5 KH2PO4, 1 CaCl2), 0.5 MgCl2, 10 glucose, 10 Na-Hepes (pH 7.4). The basolateral and apical side received 800 μL and […], respectively. The 24-well tray with cells was placed on a block heater (SBH 130D, Stuart) to keep the temperature at 37° C. during the entire experiment. After 10 min, the basal transepithelial electrical resistance (TEER) across each layer of FRT cells was measured with a STX100C electrode pair connected to an EVOM2 voltohmeter (World Precision Instruments). To stimulate F508del-CFTR, each well received (apical side) 50 μL of saline solution containing 60 μM forskolin and 150 μM genistein (final concentrations: 20 μM forskolin, 50 μM genistein). Forskolin was also pipetted in the basolateral medium to obtain the 20 μM concentration. After 10 min TEER was measured again in each well. To block F508del-CFTR function, the inhibitor PPQ-102 was used at the final concentration of 30 μM. To achieve the desired concentration, 75 μL of the apical solution in each well was replaced with an equal volume of saline solution containing 20 μM forskolin, 50 μM genistein, and 60 μM PPQ-102. After further 10 min, the transepithelial electrical resistance was measured. All values of TEER were converted to transepithelial electrical conductance (TEEC) using the formula TEEC=1/TEER. The parameter to indicate activity of F508del-CFTR in each well (ATEEC) was calculated from the difference in TEEC measured after maximal stimulation of F508del-CFTR with forskolin and genistein and after block with PPQ-102.
Corrector activities obtained on selected compounds tested at 5.0 μM (expressed as ΔTEEC values) are illustrated in table 2, wherein +: ΔTEEC<2000 μS; ++: 2000 μS<ΔTEEC<3000 μS; […]: ΔTEEC>3000 μS.

Assay [2] deals with T2, F508del-CFTR. The experiment in a line: Short-circuit current recordings on human bronchial epithelial cells (F508del/F508del). As to conditions: HBE cells from CF patients (F508del/F508del), 24 hrs treatment; table 3. On the set-up: Human bronchial epithelial (HBE) cells obtained from CF patients (F508del/F508del genotype); endogenous in cells; host or cells: primary human bronchial epithelial cells from CF patients, F508del/F508del. The method, then:
Short-Circuit Current Recordings on Human Bronchial Epithelial Cells
Human bronchial epithelial (HBE) cells obtained from CF patients (F508del/F508del genotype) were plated on Snapwell inserts (Code 3801, Corning Life Sciences) at a density of 500,000 cells per insert. Cells were cultured for two weeks in a differentiating medium whose compositions has been previously described (Scudieri et al., J Physiol 590:6141-6155, 2012). For the first week, the medium was kept on both apical and basolateral sides of inserts (submerged condition). For the second week, the apical medium was removed (air-liquid condition, ALC). To test the activity of correctors, cells were treated for 24 hrs with compounds dissolved in the basolateral medium. After treatment, Snapwell inserts carrying differentiated bronchial epithelia were mounted in a vertical chamber resembling an Ussing system with internal fluid circulation. Both apical and basolateral hemichambers were filled with 5 mL of a Krebs bicarbonate solution containing (in mM): 126 NaCl, 0.38 KH2PO4, 2.13 K2HPO4, 1 MgSO4, 1 CaCl2), 24 NaHCO3, and 10 glucose. Both sides were continuously bubbled with a gas mixture containing 5% CO2-95% air and the temperature of the solution was kept at 37° C. The transepithelial voltage was short-circuited with a voltage-clamp (DVC-1000, World Precision Instruments) connected to the apical and basolateral chambers via Ag/AgCl electrodes and agar bridges (1 M KCl in 1% agar). The offset between voltage electrodes and the fluid resistance were canceled before experiments. The short-circuit current was recorded with a PowerLab 4/25 (ADInstruments) analogical to digital converter connected to a Macintosh computer. […] The difference between the current measured with CPT-cAMP plus potentiator and the current remaining after CFTRinh-172 treatment (ΔICFTR) was taken as the parameter reflecting F508del-CFTR expression in the apical membrane.
Activities of selected compounds on HBE cells (expressed as ΔICFTR) are illustrated in table 3 wherein +: ΔICFTR<2.0 μA; ++: 2.0 μA<ΔICFTR<3.0 μA; +++: ΔICFTR>3.0 μA.

SMILES strings stand for the structures.

T2 sequence (P13569 with tags, fused parts or gaps DEL508-508): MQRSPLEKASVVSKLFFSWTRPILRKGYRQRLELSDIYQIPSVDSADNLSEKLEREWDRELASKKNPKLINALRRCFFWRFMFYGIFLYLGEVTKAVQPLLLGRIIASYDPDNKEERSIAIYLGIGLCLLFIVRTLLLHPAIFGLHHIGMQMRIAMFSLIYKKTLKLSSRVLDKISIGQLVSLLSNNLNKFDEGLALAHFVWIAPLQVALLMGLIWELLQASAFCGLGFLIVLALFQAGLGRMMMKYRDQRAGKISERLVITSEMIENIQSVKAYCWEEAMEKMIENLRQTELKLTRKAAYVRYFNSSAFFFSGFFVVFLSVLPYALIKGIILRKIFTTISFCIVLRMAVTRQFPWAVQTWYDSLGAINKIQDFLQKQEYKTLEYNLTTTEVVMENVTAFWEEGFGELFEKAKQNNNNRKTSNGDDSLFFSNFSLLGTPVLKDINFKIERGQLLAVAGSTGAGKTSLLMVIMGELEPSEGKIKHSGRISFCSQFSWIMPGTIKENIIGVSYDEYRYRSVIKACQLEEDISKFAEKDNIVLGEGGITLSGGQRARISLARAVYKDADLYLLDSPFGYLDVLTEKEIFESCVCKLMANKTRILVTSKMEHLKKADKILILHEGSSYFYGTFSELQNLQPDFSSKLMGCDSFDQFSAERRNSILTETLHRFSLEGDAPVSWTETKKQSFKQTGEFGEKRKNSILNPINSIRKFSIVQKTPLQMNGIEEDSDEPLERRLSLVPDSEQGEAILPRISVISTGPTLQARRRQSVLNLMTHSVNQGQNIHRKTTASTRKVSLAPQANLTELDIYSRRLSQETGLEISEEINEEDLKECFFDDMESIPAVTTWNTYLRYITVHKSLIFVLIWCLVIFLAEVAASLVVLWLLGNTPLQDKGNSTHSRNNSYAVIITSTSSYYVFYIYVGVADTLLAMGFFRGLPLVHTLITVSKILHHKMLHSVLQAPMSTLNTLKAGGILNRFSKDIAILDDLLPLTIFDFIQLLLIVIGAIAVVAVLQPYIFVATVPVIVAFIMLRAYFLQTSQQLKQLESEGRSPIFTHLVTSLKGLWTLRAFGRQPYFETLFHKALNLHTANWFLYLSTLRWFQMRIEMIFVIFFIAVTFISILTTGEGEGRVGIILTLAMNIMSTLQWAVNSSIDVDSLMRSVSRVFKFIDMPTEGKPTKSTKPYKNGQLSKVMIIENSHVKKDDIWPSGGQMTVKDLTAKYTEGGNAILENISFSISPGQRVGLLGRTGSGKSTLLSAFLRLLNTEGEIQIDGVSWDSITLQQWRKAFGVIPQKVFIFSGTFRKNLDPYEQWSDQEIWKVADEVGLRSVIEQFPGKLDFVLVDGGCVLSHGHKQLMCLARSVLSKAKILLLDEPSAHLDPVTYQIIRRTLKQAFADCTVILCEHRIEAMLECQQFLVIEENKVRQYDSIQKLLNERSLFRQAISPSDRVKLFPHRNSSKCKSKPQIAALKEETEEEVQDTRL
T1 sequence (P13569 with tags, fused parts or gaps DEL508-508): as above

In general, EC50 refers to the concentration at which the effect is half-maximal. Turning to `Cc1nn(-c2cccc(C(=O)N(C)c3ccc4c(c3)OC(F)(F)O4)c2)c(C)c1Cl` [compound 009, 3-(4-Chloro-3,5-dimethyl-pyrazol-1-yl)-N-(2,2-difluoro-1,3-benzodioxol-5-yl)-N-methyl-benzamide], the half-maximal effective concentration (EC50) on mutant CFTR fell in the range of 1 to 2 µM. Further, the “Corrector activity (ΔTEEC)” value on F508del-CFTR [1] is “+ (ΔTEEC<2000 μS)”. The “activity on HBE cells (ΔICFTR)” value on F508del-CFTR [2] is “++ (2.0 μA<ΔICFTR<3.0 μA)”.
`CCOC(=O)c1c(Cl)c(C)nn1-c1cccc(C(=O)N(C)c2ccc3c(c2)OCO3)c1` [compound 075, Ethyl 2-[3-[1,3-benzodioxol-5-yl(methyl)carbamoyl]phenyl]-4-chloro-5-methyl-pyrazole-3-carboxylate]: the concentration giving a half-maximal response (EC50) on mutant CFTR was less than 1 µM. Moreover, at F508del-CFTR [1], the “Corrector activity (ΔTEEC)” value is listed as “+ (ΔTEEC<2000 μS)”. Moreover, at F508del-CFTR [2], the “activity on HBE cells (ΔICFTR)” value is “+ (ΔICFTR<2.0 μA)”.
As for `Cc1nc2cc(Cl)c(N(C)C(=O)c3cccc(-n4nc(C)c(Cl)c4C)c3)cc2o1` [compound 080, 3-(4-Chloro-3,5-dimethyl-pyrazol-1-yl)-N-(5-chloro-2-methyl-1,3-benzoxazol-6-yl)-N-methyl-benzamide], on mutant CFTR, the EC50 was less than 1 µM. Besides, the “Corrector activity (ΔTEEC)” value at F508del-CFTR [1] is recorded as “++ (2000 μS<ΔTEEC<3000 μS)”. Moreover, the “activity on HBE cells (ΔICFTR)” value at F508del-CFTR [2] is on record as “++ (2.0 μA<ΔICFTR<3.0 μA)”.
In the case of `Cc1nn(-c2cccc(C(=O)N(C)c3ccc4c(c3)OCO4)c2)c(C(=O)OC(C)(C)C)c1Cl` [compound 089, Tert-butyl 2-[3-[1,3-benzodioxol-5-yl(methyl)carbamoyl]phenyl]-4-chloro-5-methyl-pyrazole-3-carboxylate], the concentration for a half-maximal effect (EC50) on mutant CFTR was less than 1 µM. For the same compound, the “Corrector activity (ΔTEEC)” value on F508del-CFTR [1] is given as “+ (ΔTEEC<2000 μS)”. Moreover, the “activity on HBE cells (ΔICFTR)” value at F508del-CFTR [2] is “+++ (ΔICFTR>3.0 μA)”.
The like results for `Cc1c(Cl)c(C(F)(F)F)nn1-c1cccc(C(=O)N(C)c2ccc3c(c2)OCO3)c1` [compound 090, N-(1,3-Benzodioxol-5-yl)-3-[4-chloro-5-methyl-3-(trifluoromethyl)pyrazol-1-yl]-N-methyl-benzamide] were, in that order, less than 1 µM, “++ (2000 μS<ΔTEEC<3000 μS)” and “+++ (ΔICFTR>3.0 μA)”.
The like results for `Cc1c(Br)c(C(F)(F)F)nn1-c1cccc(C(=O)N(C)c2ccc3c(c2)OCO3)c1` [compound 098, N-(1,3-Benzodioxol-5-yl)-3-[4-bromo-5-methyl-3-(trifluoromethyl)pyrazol-1-yl]-N-methyl-benzamide] were, in that order, less than 1 µM, “++ (2000 μS<ΔTEEC<3000 μS)” and “+++ (ΔICFTR>3.0 μA)”.
The like results for `Cc1nn(-c2cccc(C(=O)N(C)c3ccc4c(c3)OCO4)c2)c(C)c1C(F)(F)F` [compound 099, N-(1,3-Benzodioxol-5-yl)-3-[3,5-dimethyl-4-(trifluoromethyl)pyrazol-1-yl]-N-methyl-benzamide] were, in that order, less than 1 µM, “++ (2000 μS<ΔTEEC<3000 μS)” and “++ (2.0 μA<ΔICFTR<3.0 μA)”.
Consider `CC(C)Cc1cc(C(F)(F)F)nn1-c1cccc(C(=O)N(C)c2ccc3c(c2)OCO3)c1` [compound 100, N-(1,3-Benzodioxol-5-yl)-3-[5-isobutyl-3-(trifluoromethyl)pyrazol-1-yl]-N-methyl-benzamide], for which, on mutant CFTR, the half-maximal effective concentration (EC50) is less than 1 µM. The “Corrector activity (ΔTEEC)” value at F508del-CFTR [1] is “+ (ΔTEEC<2000 μS)”. For the same compound, on F508del-CFTR [2], the “activity on HBE cells (ΔICFTR)” value is given as “+ (ΔICFTR<2.0 μA)”.
For `Cc1nn(-c2cccc(C(=O)N(C)c3ccc4c(c3)OCO4)c2)c(COc2ccc(C(=O)O)cc2)c1Cl` [compound 144, 4-[[2-[3-[1,3-Benzodioxol-5-yl(methyl)carbamoyl]phenyl]-4-chloro-5-methyl-pyrazol-3-yl]methoxy]benzoic acid], the EC50 at mutant CFTR is less than 1 µM. Also, at F508del-CFTR [2], the “activity on HBE cells (ΔICFTR)” value is recorded as “++ (2.0 μA<ΔICFTR<3.0 μA)”.
As to `Cc1noc2cc(N(C)C(=O)c3cccc(-n4nc(C(F)(F)F)cc4OCc4ccc(C(=O)O)cc4)c3)ccc12` [compound 263, 4-[[2-[3-[Methyl-(3-methyl-1,2-benzoxazol-6-yl)carbamoyl]phenyl]-5-(trifluoromethyl)pyrazol-3-yl]oxymethyl]benzoic acid], at mutant CFTR, the EC50 is greater than 2 µM.
As to `CN(C(=O)c1cccc(-n2nc(C(F)(F)F)cc2OC2CCN(C(=O)CCC(=O)O)CC2)c1)c1ccc2c(c1)OC(F)(F)O2` [compound 264, 4-[4-[2-[3-[(2,2-Difluoro-1,3-benzodioxol-5-yl)-methyl-carbamoyl]phenyl]-5-(trifluoromethyl)pyrazol-3-yl]oxy-1-piperidyl]-4-oxo-butanoic acid], the concentration for a half-maximal effect (EC50) at mutant CFTR fell in the range of 1 to 2 µM.
Take `CN(C(=O)c1cccc(-n2nc(C(F)(F)F)cc2OCC2(C(=O)O)CC2)c1)c1ccc2c(c1)OC(F)(F)O2` [compound 265, 1-[[2-[3-[(2,2-Difluoro-1,3-benzodioxol-5-yl)-methyl-carbamoyl]phenyl]-5-(trifluoromethyl)pyrazol-3-yl]oxymethyl]cyclopropanecarboxylic acid]: the EC50 at mutant CFTR was greater than 2 µM.
As to `CN(C(=O)c1cccc(-n2nc(C(F)(F)F)c(Cl)c2COc2ccc(C(=O)O)cc2)c1)c1cnc2c(c1)OCO2` [compound 267, 4-[[4-Chloro-2-[3-[[1,3]dioxolo[4,5-b]pyridin-6-yl (methyl)carbamoyl]phenyl]-5-(trifluoromethyl)pyrazol-3-yl]methoxy]benzoic acid], the concentration giving a half-maximal response (EC50) on mutant CFTR is less than 1 µM.
On to `CN(C(=O)c1cccc(-n2nc(C(F)F)c(C#N)c2COc2ccc(C(=O)O)cc2)c1)c1ccc2c(c1)OC(F)(F)O2` [compound 268, 4-[[4-cyano-2-[3-[(2,2-difluoro-1,3-benzodioxol-5-yl)-methyl-carbamoyl]phenyl]-5-(difluoromethyl)pyrazol-3-yl]methoxy]benzoic acid], for which the EC50 on mutant CFTR is less than 1 µM.
The same measure, in the same setting: in the case of `Cc1c(N(C)C(=O)c2cccc(-n3nc(C(F)(F)F)c(Cl)c3C)c2)ccc2c1OCO2` [compound 269, 3-[4-chloro-5-methyl-3-(trifluoromethyl)pyrazol-1-yl]-N-methyl-N-(4-methyl-1,3-benzodioxol-5-yl)benzamide] it was greater than 2 µM.
